Test results reported in patent US20120196933A1, “MEXILETINE PRODRUGS” (priority 2010, published 2012).
Where “and” joins values, the source holds several entries; their conditions need not be identical. Equal entries are not always repeated. Where two headings read alike, the source gives them in different places. Marks after values point to notes of the source that are not given here.

Tests used:
[1] = rat
Method: Test substances (i.e., mexiletine & mexiletine glutamic acid amide) were administered by oral gavage to groups of five male Sprague Dawley rats.
Blood samples were taken at various times after administration and submitted to analysis for the prodrug and parent drug using a validated LC-MS-MS assay. Pharmacokinetic parameters derived from the plasma analytical were determined using Win Nonlin.

[2] = In vitro stability of mexiletine prodrugs under conditions prevailing in the gut; format: physicochemical; conditions: 0.1M phosphate buffer pH 7.4, 2 h
[3] = Systemic availability of mexiletine in the dog from mexiletine prodrugs (oral gavage); format: in vivo
Method: Test substances (i.e., mexiletine, and various mexiletine amino acid prodrugs) were administered by oral gavage to groups of two or some cases five dogs. The characteristics of the test animals are set out in Table 6.
Blood samples were taken at various times after administration and submitted to analysis for parent drug using a validated LC-MS-MS assay. Pharmacokinetic parameters derived from the plasma bioanalytical data were determined using Win Nonlin.

[4] = test system: 9-AC induced myotonia in the rat; assay: Anti-myotonic effects in 9-anthracene carboxylic acid (9-AC) treated rats (righting time); format: in vivo; conditions: for Mean ± SEM righting response time: 9-AC 30 mg/kg ip
Method: The use of ip injection of 9-anthracene carboxylic acid is known to induce a myotonic state in rats which can then be used to assess the activity of potential anti-myotonic compounds (Villegas-NavarroA et al (1992) Exp. Toxicol. Pathol. 44 34-39).
Groups of four rats were predosed with 30 mg/kg 9-AC (time 0) and ten minutes later their righting time was assessed repeatedly seven times in rapid succession. They were then dosed po with mexiletine or mexiletine glutamic acid amide at 1, 5, 10, 20 or 40 mg/kg and the righting time reassessed at ˜30, 60, 120 and 180 minutes after 9-AC injection. At each dose level, a group of four control animals, given vehicle alone, was used

[5] = In vitro stability of mexiletine prodrugs under conditions prevailing in the gut; format: physicochemical; conditions: HPLC
Method: To investigate if the prodrugs of the present invention are stable in conditions mimicking the gut, various mexiletine amino acid prodrugs were incubated at 37° C. in simulated gastric and simulated intestinal juice (USP defined composition) for 2 hours. The remaining concentrations of the prodrug were then assayed by HPLC.

[6] = Systemic availability of mexiletine in the cynomolgus monkey from mexiletine prodrugs (oral gavage); format: in vivo; conditions: 1 mg/kg mexiletine free base
Method: Test substances (i.e., mexiletine, and various mexiletine amino acid prodrugs) were administered by oral gavage to groups of two and, in one case, five male cynomolgus monkeys. Blood samples were taken at various times after administration and submitted to analysis for the parent drug using a validated LC-MS-MS assay. Pharmacokinetic parameters derived from the plasma bioanalytical data were determined using Win Nonlin.

ADR mouse = assay: Anti-myotonic effects in the ADR mouse (righting response); format: in vivo
Method: The effects of oral administration of either mexiletine glutamic acid amide at 5, 10 or 20 mg/kg or mexiletine 5 mg/kg on the righting response of a group of three adr/adr mice were examined on three separate days. Each assessment involved placing the individual mice on their back no fewer than seven successive occasions in rapid succession and determining the time to successful righting at various time pre and post dosing (−10, +15, +30, +60, +120 & +180 mins).

[7] = oral 5 mg mexiletine free base equivalents/kg, individual animals, Hydrochloride
[8] = oral 5 mg mexiletine free base equivalents/kg, plasma prodrug, individual animals, Hydrochloride
[9] = oral 5 mg mexiletine free base equivalents/kg, plasma prodrug, mean
[10] = 1 mg/kg mexiletine free base, plasma mexiletine

Cc1cccc(C)c1OCC(C)NC(=O)C(N)CCC(=O)O.Cl (mixture of isomers) [Mexiletine glutamic acid amide, Mexiletine-(S)-Glutamic Acid Amide Hydrochloride]
Overall bioavailability of mexiletine from the prodrug vs mexiletine ([1]; oral): ~2.75 fold
Frel ([1]; oral 5 mg mexiletine free base equivalents/kg, individual animals, vs mexiletine, Hydrochloride): 163^c % and 152^c % and 232% and 303% and 283%
AUC of mexiletine [1, 7]: 29.2* ng · h/mL and 33.3 ng · h/mL and 43.4 ng · h/mL and 40.6 ng · h/mL
Cmax of mexiletine [1, 7]: 8.21 ng/mL and 8.99 ng/mL and 7.97 ng/mL and 10.4 ng/mL and 8.84 ng/mL
T>50% Cmax of mexiletine [1, 7]: 4.1 h (2×) and 2.5 h and 2.4 h and 3.9 h
Tmax of mexiletine [1, 7]: 1 h (3×) and 2 h (2×)
t 1/2 of mexiletine [1, 7]: 1.8* h and 2.6 h and 1.2 h and 2.5 h
t 1/2 of mexiletine, mean ([1]; oral 5 mg mexiletine free base equivalents/kg, ln2/mean k): 1.9^b h
Cmax of mexiletine, mean ([1]; oral 5 mg mexiletine free base equivalents/kg, mean): 8.88 ng/mL
AUC of mexiletine, mean ([1]; oral 5 mg mexiletine free base equivalents/kg, mean (values with extrapolated AUC > 25% omitted)): 39.1 ng·h/mL
Frel, mean ([1]; oral 5 mg mexiletine free base equivalents/kg, mean, vs mexiletine): 273%
Tmax of mexiletine, median ([1]; oral 5 mg mexiletine free base equivalents/kg, median value): 1^a h
T>50% Cmax of mexiletine, median ([1]; oral 5 mg mexiletine free base equivalents/kg, median value, Hydrochloride): 3.9^a h
T>50% Cmax of mexiletine, median ([1]; oral 5 mg mexiletine free base equivalents/kg, median value, listed as MGAA, Hydrochloride): ~4.0 h
AUC of mexiletine glutamic acid amide (prodrug) [1, 8]: 269 ng·h/mL and 266 ng·h/mL and 223 ng·h/mL and 320 ng·h/mL and 413 ng·h/mL
Cmax of mexiletine glutamic acid amide (prodrug) [1, 8]: 127 ng/mL and 186 ng/mL and 101 ng/mL and 180 ng/mL and 138 ng/mL
Tmax of mexiletine glutamic acid amide (prodrug) [1, 8]: 0.25 h and 0.5 h (2×) and 1.0 h (2×)
t 1/2 of mexiletine glutamic acid amide (prodrug) [1, 8]: 1.0 h and 0.9 h (2×) and 1.9 h and 1.3 h
t 1/2 of mexiletine glutamic acid amide (prodrug), mean ([1]; oral 5 mg mexiletine free base equivalents/kg, plasma prodrug, ln2/mean k): 1.0^b h
AUC of mexiletine glutamic acid amide (prodrug), mean [1, 9]: 298 ng·h/mL
Cmax of mexiletine glutamic acid amide (prodrug), mean [1, 9]: 146 ng/mL
Tmax of mexiletine glutamic acid amide (prodrug), median ([1]; oral 5 mg mexiletine free base equivalents/kg, plasma prodrug, median value): 0.5^a h
pH 7.4, 37° C. 0.1M phosphate buffer: % remaining after 2 h/37° C. [2]: 100%
Bioavailability with respect to mexiletine [3]: near complete
AUC of mexiletine [3, 10]: 1020 ng·h/mL
Cmax of mexiletine [3, 10]: 104 ng/mL
T50% Cmax [3, 10]: 7.64 h
F(rel) ([3]; 1 mg/kg mexiletine free base, relative to mexiletine, Hydrochloride, 1 mg/kg): 94.9%
Coefficient of variation of the response ([4]; 10 mg/kg (same molar dose level), time of maximal effect of 9-AC (+30 mins)): 43.3%
Mean ± SEM righting response time ([4]; drug 1 mg/kg po, 9-AC +10 mins (predrug)): 1.98 ± 0.115 s
Mean ± SEM righting response time ([4]; drug 1 mg/kg po, 9-AC +30 mins): 3.52 ± 0.398 s
Mean ± SEM righting response time ([4]; drug 1 mg/kg po, 9-AC +60 mins): 1.86 ± 0.195 s
Mean ± SEM righting response time ([4]; drug 1 mg/kg po, 9-AC +120 mins): 1.07 ± 0.0369 s
Mean ± SEM righting response time ([4]; drug 1 mg/kg po, 9-AC +180 mins): 0.714 ± 0.0427 s
Mean ± SEM righting response time ([4]; drug 5 mg/kg po, 9-AC +10 mins (predrug)): 2.24 ± 0.208 s
Mean ± SEM righting response time ([4]; drug 5 mg/kg po, 9-AC +60 mins): 2.22 ± 0.0828 s
Mean ± SEM righting response time ([4]; drug 5 mg/kg po, 9-AC +120 mins): 1.32 ± 0.194 s
Mean ± SEM righting response time ([4]; drug 5 mg/kg po, 9-AC +180 mins): 1.11 ± 0.220 s
Mean ± SEM righting response time ([4]; drug 10 mg/kg po, 9-AC +10 mins (predrug)): 3.07 ± 0.754 s
Mean ± SEM righting response time ([4]; drug 10 mg/kg po, 9-AC +60 mins): 2.33 ± 0.472 s
Mean ± SEM righting response time ([4]; drug 10 mg/kg po, 9-AC +120 mins): 1.26 ± 0.105 s
Mean ± SEM righting response time ([4]; drug 10 mg/kg po, 9-AC +180 mins): 1.18 ± 0.156 s
Mean ± SEM righting response time ([4]; drug 20 mg/kg po, 9-AC +10 mins (predrug)): 1.90 ± 0.274 s
Mean ± SEM righting response time ([4]; drug 20 mg/kg po, 9-AC +60 mins): 1.51 ± 0.153 s
Mean ± SEM righting response time ([4]; drug 20 mg/kg po, 9-AC +120 mins): 1.18 ± 0.0973 s
Mean ± SEM righting response time ([4]; drug 20 mg/kg po, 9-AC +180 mins): 1.03 ± 0.0709 s
Mean ± SEM righting response time ([4]; drug 40 mg/kg po, 9-AC +10 mins (predrug)): 2.10 ± 0.077 s
Mean ± SEM righting response time ([4]; drug 40 mg/kg po, 9-AC +60 mins): 0.95 ± 0.166 s
Mean ± SEM righting response time ([4]; drug 40 mg/kg po, 9-AC +120 mins): 0.669 ± 0.0558 s
Mean ± SEM righting response time ([4]; drug 40 mg/kg po, 9-AC +180 mins): 0.570 ± 0.0576 s
Simulated gastric fluid (pH 1.1): % remaining after 2 h/37° C. ([5]; simulated gastric fluid pH 1.1, 2 h): 100%
Simulated intestinal fluid (pH 6.8): % remaining after 2 h/37° C. ([5]; simulated intestinal fluid pH 6.8, 2 h): 98.3%
AUC of mexiletine ([6]; plasma mexiletine): 604 ng·h/mL
Cmax of mexiletine ([6]; plasma mexiletine): 90.6 ng/mL
T50% Cmax ([6]; plasma mexiletine): 4.76 h
F(rel) ([6]; relative to mexiletine, Hydrochloride, 1 mg/kg): 87.6%
Effects on righting time (ADR mouse; oral 5 mg/kg): marginal
Mean ± SEM righting response time (ADR mouse; oral 5 mg/kg, +15 mins): 5.70 ± 0.864 s
Mean ± SEM righting response time (ADR mouse; oral 5 mg/kg, +30 mins): 6.53 ± 0.928 s
Mean ± SEM righting response time (ADR mouse; oral 5 mg/kg, +60 mins): 7.13 ± 1.46 s
Mean ± SEM righting response time (ADR mouse; oral 5 mg/kg, +120 mins): 9.22 ± 1.44 s
Mean ± SEM righting response time (ADR mouse; oral 5 mg/kg, +180 mins): 8.38 ± 0.601 s
Mean ± SEM righting response time (ADR mouse; oral 5 mg/kg, −10 mins (pre dosing)): 5.10 ± 0.580 s
Mean ± SEM righting response time (ADR mouse; oral 10 mg/kg, +15 mins): 3.14 ± 0.278 s
Mean ± SEM righting response time (ADR mouse; oral 10 mg/kg, +30 mins, listed as MGAA, Hydrochloride, 10 mg/kg): 2.74+0.37 secs and 2.74 ± 0.373 secs
Mean ± SEM righting response time (ADR mouse; oral 10 mg/kg, +60 mins): 4.41 ± 1.02 s
Mean ± SEM righting response time (ADR mouse; oral 10 mg/kg, +120 mins): 5.45 ± 0.529 s
Mean ± SEM righting response time (ADR mouse; oral 10 mg/kg, +180 mins): 6.92 ± 1.05 s
Mean ± SEM righting response time (ADR mouse; oral 10 mg/kg, −10 mins (pre dosing), listed as MGAA, Hydrochloride, 10 mg/kg): 5.18 ± 0.43 s and 5.18 ± 0.427 s
Mean ± SEM righting response time (ADR mouse; oral 20 mg/kg, +15 mins): 4.23 ± 1.09 s
Mean ± SEM righting response time (ADR mouse; oral 20 mg/kg, +30 mins): 3.06 ± 0.884 s
Mean ± SEM righting response time (ADR mouse; oral 20 mg/kg, +60 mins): 4.05 ± 0.286 s
Mean ± SEM righting response time (ADR mouse; oral 20 mg/kg, +120 mins): 5.90 ± 0.568 s
Mean ± SEM righting response time (ADR mouse; oral 20 mg/kg, +180 mins): 7.90 ± 1.34 s
Mean maximum reduction in righting time (ADR mouse; oral 20 mg/kg, extended over 3 hours): ~60%
Mean ± SEM righting response time (ADR mouse; oral 20 mg/kg, −10 mins (pre dosing)): 7.13 ± 1.84 s
